Where “and” joins values, the source holds several entries; their conditions need not be identical. Equal entries are not always repeated.
Tests used:
SW1088 = test: Cytotoxicity (MTS or SRB assay), SW1088; assay type: cell-based, human
Experimental: Human glioma cells were ordered from American Type Culture Collection (ATCC, Manassas, Va.), and maintained in DMEM with 4×10^−3M L-glutamine, 100 U/ml penicillin, 100 μg/ml streptomycin, and 10% fetal bovine serum (FBS). All experiments were performed at 37° C. in 5% CO2 atmosphere under cell culture conditions. […] Then cells received different dosages of γ-radiation from a ^60Co source GammaCell 220 (Nordion International Inc, Ontario, Canada) or chemotherapeutic agents for another 2-6 days. Cell cytotoxicity assay was determined by MTS [3-(4,5-dimethylthiazol-2-yl)-5-(3-carboxymethoxyphenyl)-2-(4-sulfophenyl)-2H-tetrazolium, inner salt] Cell Proliferation Assay (Promega, Madison, Wis.) or sulforhodamine B (SRB) assay at the end of the exposure period (47, 48).

U87-MG = test: cells
Experimental: (§1) Human neuroblastoma cell lines were cultured in Dulbecco's Modified Eagle Medium (DMEM)/F12 media. Human glioma cells were ordered from American Type Culture Collection (ATCC, Manassas, Va.), and maintained in DMEM with 4×10^−3M L-glutamine, 100 U/ml penicillin, 100 μg/ml streptomycin, and 10% fetal bovine serum (FBS). All experiments were performed at 37° C. in 5% CO2 atmosphere under cell culture conditions. Prior to γ-radiation or exposure to chemotherapeutic agents, the glioma cells were plated at a density of 156 to 8,000 cells per well in 96 well plates to account for differences in growth rates, and to obtain similar cell densities for the experimental manipulations, and cultured overnight. Then cells received different dosages of γ-radiation from a ^60Co source GammaCell 220 (Nordion International Inc, Ontario, Canada) or chemotherapeutic agents for another 2-6 days. Cell cytotoxicity assay was determined by MTS [3-(4,5-dimethylthiazol-2-yl)-5-(3-carboxymethoxyphenyl)-2-(4-sulfophenyl)-2H-tetrazolium, inner salt] Cell Proliferation Assay (Promega, Madison, Wis.) or sulforhodamine B (SRB) assay at the end of the exposure period (47, 48).
(§2) Chemotype moiety compounds of CC-I were also tested on the Temodar-resistant CCF-STTG1 and Temodar®-sensitive U87-MG cell lines. The glioma cell culture and treatment is as described above.
(§3) The human glioma CCF-STTG1 cell lines were plated at a density of 5,000 cells per well in 96 well plates under standard DMEM cell culture conditions and then exposed to different concentrations of CC-I, merbarone, or ICRF-193 for 5 days. Merbarone and ICRF-193 are both topoisomerase II inhibitors (55, 56).

U251 = test: Cytotoxicity (MTS or SRB assay), U251; assay type: cell-based; settings: human astrocytoma or glioblastoma cell line
Experimental: (§5) Human neuroblastoma cell lines were cultured in Dulbecco's Modified Eagle Medium (DMEM)/F12 media. Human glioma cells were ordered from American Type Culture Collection (ATCC, Manassas, Va.), and maintained in DMEM with 4×10^−3M L-glutamine, 100 U/ml penicillin, 100 μg/ml streptomycin, and 10% fetal bovine serum (FBS). All experiments were performed at 37° C. in 5% CO2 atmosphere under cell culture conditions. Prior to γ-radiation or exposure to chemotherapeutic agents, the glioma cells were plated at a density of 156 to 8,000 cells per well in 96 well plates to account for differences in growth rates, and to obtain similar cell densities for the experimental manipulations, and cultured overnight. […] Cell cytotoxicity assay was determined by MTS [3-(4,5-dimethylthiazol-2-yl)-5-(3-carboxymethoxyphenyl)-2-(4-sulfophenyl)-2H-tetrazolium, inner salt] Cell Proliferation Assay (Promega, Madison, Wis.) or sulforhodamine B (SRB) assay at the end of the exposure period (47, 48).

CCF-STTG1 = test: cells
Experimental: as §1
Temodar®-resistant cell lines were used to screen for compounds having the ability to decelerate the growth of, or kill, Temodar®-resistant cells. The efficacy of over 15,000 different compounds in the Drug Discovery Core at Pennsylvania State Hershey Medical Center was tested on Temodar®-resistant human neuroblastoma SH-SY5Y and human glioma CCF-STTG1 cell lines with a colorimetric cytotoxicity assay, the sulforhodamine B (SRB) assay (53).
as §2, §3

BREC = test: Cytotoxicity, bovine retinal endothelial cells; assay type: cell-based
Experimental: Bovine retinal endothelial cells (BRECs) were isolated and processed according to a previously published procedure (49, 50). In brief, BREC was grown in MCDB-131 media (Sigma, St) supplemented with 10% FBS, 10 ng/mL EGF, 0.2 mg/mL ENDO GRO (VEC Technologies, Inc.), 0.09 mg/ml heparin, and antibiotic/antimycotic (Invitrogen).

ST88 = test: Cytotoxicity, ST88 neurofibroma cells; assay type: cell-based, human
Experimental: (§4) Cells of established neurofibroma cell lines were plated at a density of 2000-4000 cells per well in 96 well plates under standard cell culture conditions (54) and then exposed to CC-I for 2 days.

NF215 = test: Cytotoxicity, NF215 neurofibroma cells; assay type: cell-based, human
Experimental: as §4

SVGp12 = test: Cytotoxicity, SVGp12; assay type: cell-based; settings: SV40 transformed human astrocyte cell line
Experimental: as §5

OVCAR-3 = test: Cytotoxicity, ovarian cancer cells; assay type: cell-based; settings: human ovarian carcinoma cell line
Experimental: To assess the effect of CC-I on the ovarian cancer cells, the cells were cultured overnight at a density of 5,000 to 10,000 cells per well in 96 well plates. Then the cells were treated with different concentrations of CC-I (Formula IV) or Formula V for another 3-6 days before cytotoxicity assay using MTS or SRB assay. The IC50 or LD50, 50% inhibition or lethal dose, of compounds is also determined using statistical software (GraphPad) as a general indicator of toxicity.

WT/SH-SY5Y = test: Cytotoxicity, WT/SH-SY5Y neuroblastoma; assay type: cell-based; settings: wild type HFE transfected human neuroblastoma SH-SY5Y
Experimental: as §5

A549 cells = test: pXC50 on A549 cells (later tests); assay type: cell-based
CCF-STTG1 cell tumors = test: Athymic nude mouse subcutaneous glioma tumor model; settings: 25 mg/kg i.p. once a week for 7 weeks
Experimental: The efficacy and toxicity of CC-I was tested in vivo using the athymic nude mouse subcutaneous tumor model. Ten million cells of the Temodar®-sensitive (SW1088) or Temodar®-resistant (CCF-STTG1) malignant glioma cell lines were injected into the flank of one-month-old, female athymic nude mice. When the tumor reached 32 mm^3 in size (week I on graph), CC-I (25 mg/kg) was injected intraperitoneally once a week for 7 weeks.

[1] = system: U87-MG or CCF-STTG1 glioma cells; test: Intracranial orthotopic xenograft brain tumor model; settings: 25 mg/kg i.p. once a week for 7 weeks
Experimental: The effect of CC-I in an intracranial, orthotopic xenograft brain tumor model was analysed. The caudate putamen region of female, athymic nude mice was injected with 10^6 human U87-MG (Temodar®-sensitive) or CCF-STTG1 (Temodar®-resistant) glioma cells in a volume of 10 μl. At one week post-injection, tumor volume was measured using Ti weighted MRI contrast (7T MR imaging system). Thereafter, CC-I was injected intraperitoneally, once a week for 7 weeks at a concentration of 25 mg/kg body weight. Tumor size was measured weekly. […] Liver and kidney toxicity (total bilirubin, blood urea nitrogen (BUN), creatine, aspartate aminotransferase (SGOT/AST), alanine aminotransferase (SGPT/ALT), and alkaline phosphatase) were also determined using an automated chemistry analyzer machine (Roche Cobase MIRA) and kits manufactured by Thermo Electron.

human topoisomerase I = human topoisomerase I (Homo sapiens, UniProt P11387); test: Supercoiled pBR322 DNA relaxation assay; assay type: biochemical; settings: concentrations as high as 50 μg/ml
Excerpt: To determine whether CC-I is a specific inhibitor of topoisomerase I or IIα, the ability of CC-I to inhibit topoisomerases I and IIα activity was examined using a supercoiled DNA relaxation assay.

Sequence of human topoisomerase I (P11387 whole entry): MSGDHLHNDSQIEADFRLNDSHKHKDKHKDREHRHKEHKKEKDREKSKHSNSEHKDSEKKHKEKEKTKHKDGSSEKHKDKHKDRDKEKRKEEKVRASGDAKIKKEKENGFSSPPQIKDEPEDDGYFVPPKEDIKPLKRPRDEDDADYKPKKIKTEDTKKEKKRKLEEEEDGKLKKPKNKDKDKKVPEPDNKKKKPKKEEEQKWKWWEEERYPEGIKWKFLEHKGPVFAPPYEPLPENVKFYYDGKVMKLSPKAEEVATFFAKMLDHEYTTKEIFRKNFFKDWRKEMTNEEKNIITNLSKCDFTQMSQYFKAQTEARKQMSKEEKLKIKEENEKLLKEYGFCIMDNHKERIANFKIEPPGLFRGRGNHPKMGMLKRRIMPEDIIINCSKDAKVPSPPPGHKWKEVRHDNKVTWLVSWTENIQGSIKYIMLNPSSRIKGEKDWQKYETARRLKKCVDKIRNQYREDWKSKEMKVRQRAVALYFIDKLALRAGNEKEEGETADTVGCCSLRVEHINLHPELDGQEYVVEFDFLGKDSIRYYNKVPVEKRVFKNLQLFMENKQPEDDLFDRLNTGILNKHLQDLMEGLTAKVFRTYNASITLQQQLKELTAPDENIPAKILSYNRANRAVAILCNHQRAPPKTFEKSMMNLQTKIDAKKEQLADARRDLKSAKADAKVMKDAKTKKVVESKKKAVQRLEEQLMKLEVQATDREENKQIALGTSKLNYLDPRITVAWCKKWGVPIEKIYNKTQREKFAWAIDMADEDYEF

In the case of CCN1C(=O)C(=C/C=C/c2ccco2)C(=O)NC1=S [CC-I], the LD50 (SW1088; SW-1088 astrocytoma cells) is reported as “≈ 0.5 μg/ml and ~1.7 μM”, the IC50 (SW1088; human astrocytoma or glioblastoma cell line, read-out: IC50 (μM) SW1088) is reported as 1.7 µM and the “cytotoxicity compared with merbarone or ICRF-193” value (U87-MG; U87-MG, 5 days) is reported as “more cytotoxic”. The IC50 (U87-MG; read-out: IC50 (μM) U87-MG, human astrocytoma or glioblastoma cell line) was 3.9 µM, the IC50 (U251) was 3.8 µM and the “cytotoxicity compared with merbarone or ICRF-193” value (CCF-STTG1; CCF-STTG1, 5 days) was “more cytotoxic”. For the same compound, the IC50 (CCF-STTG1; read-out: IC50 (μM) CCF-STTG1, human astrocytoma or glioblastoma cell line, Temodar-resistant) was 4.3 µM, the IC50 (BREC; bovine retinal endothelial cell) was 46.9 µM and the “toxicity to bovine retinal endothelial cells (BREC)” value (BREC; model for the blood-brain-barrier) was “not toxic”. The LD50 (ST88; ST88 neurofibroma cells, 2 days exposure) was 2.1 µg/mL, the IC50 (ST88; human neurofibroma cell line) was 7.5 µM and the LD50 (NF215; NF215 neurofibroma cells, 2 days exposure) was 1.4 µg/mL. For the same compound, the IC50 (NF215; human neurofibroma cell line) was 5.1 µM, the IC50 (SVGp12) was 4.2 µM and the IC50 (OVCAR-3) was 3.5 µM. For the same compound, the IC50 (WT/SH-SY5Y) was 3.3 µM, the pXC50 (A549 cells) was 4.5 and the “body weight of the mice” value (CCF-STTG1 cell tumors) was “not affected”. The “liver or kidney toxicity” value (CCF-STTG1 cell tumors) was “No liver or kidney toxicity”, the “growth of subcutaneous tumors” value (CCF-STTG1 cell tumors; CCF-STTG1 tumors, nude mice) was “completely inhibited” and the “body weight of mice” value [1] was “not affected”. For the same compound, the “liver and kidney toxicity (blood chemistry)” value [1] was “no liver or kidney toxicity”, the “survival of tumor-bearing mice” value [1] was “extended survival” and the intracranial tumor growth ([1]; Temodar-resistant and -sensitive tumors) was “inhibited tumor growth”. The “effect on topoisomerase I activity” value (human topoisomerase I) was “no effect”.

Reference: US9994554B2, “Barbiturate and thiobarbiturate compounds for use in cancer therapy” (NUHOPE, LLC, priority 2011, dated 2018)
